Measured values as given in publication PMC12051037 (Chemistry (Weinheim an der Bergstrasse, Germany), 2024).
“Also recorded” adds a separate entry of the source.

Test: Stability of the aldehyde in solution
Format: physicochemical
Settings: slowly converts into 1

For tumonolide aldehyde [compound 2], the stability was “not stable; also recorded: poor stability”.
